In patent US4732890A, “Retro-inverso hexapeptide neurotensin analogs, process for their preparation and pharmaceutical compositions containing them” (Eniricerche S.p.A., priority 1985, dated 1988):

Legend:
[1] = cited from earlier work
male rats = assay: Blood pressure after i.v. injection in urethane-anesthetized male rats; assay type: in vivo, rat; settings: 20 meq/Kg; for Arterial pressure: i.v. right femoral vein, basal 80-130 mmHg; for Pressure Δ: i.v., versus basal 80-130 mmHg
Description: Typically, male rats weighing about 200-300 g, anesthetized with urethane (1.75 g/Kg i.p.), were employed in these tests and the hexapeptide [drawing 9] was administered by i.v. injection in the right femoral vein at a dosage of 20 meq/Kg body weight.
Blood pressure was recorded at different times following the injection.
The basal values were on the average 80-130 mmHg.

| Substance | in vivo biological activity relative to NT [1] | Arterial pressure (male rats; 30' from admin.) | Pressure Δ (male rats; 30' from admin.) | Arterial pressure (male rats; 1 h from admin.) | Pressure Δ (male rats; 1 h from admin.) | Arterial pressure (male rats; 2 h from admin.) | Pressure Δ (male rats; 2 h from admin.) | Arterial pressure (male rats; 2.5 h from admin.) | Pressure Δ (male rats; 2.5 h from admin.) | Arterial pressure (male rats; 3.5 h from admin.) | Pressure Δ (male rats; 3.5 h from admin.) | Arterial pressure (male rats; 4.5 h from admin.) | Pressure Δ (male rats; 4.5 h from admin.) | Arterial pressure (male rats; 5 h from admin.) | Pressure Δ (male rats; 5 h from admin.) | Arterial pressure (male rats; 6 h from admin.) | Pressure Δ (male rats; 6 h from admin.) |
| --- | --- | --- | --- | --- | --- | --- | --- | --- | --- | --- | --- | --- | --- | --- | --- | --- | --- |
| Arg-Arg-Pro-Tyr-Ile-Leu (RRPYIL; printed: Arg-Arg-Pro-Tyr-Ile-Leu) [C-terminal hexapeptide, C-terminal hexapeptide fragment of NT] | much lower than NT itself | – | – | – | – | – | – | – | – | – | – | – | – | – | – | – | – |
| Arginyl-arginyl-prolyl-tyrosyl-gem diamino-isoleucyl-(R,S)malonyl-leucine [Example 1] | – | 80-125 mmHg | 0-5 | 75-125 mmHg | 5-5 | 75-125 mmHg | 5-5 | 75-120 mmHg | 5-10 | 75-120 mmHg | 5-10 | 70-110 mmHg | 10-20 | 70-110 mmHg | 10-20 | 65-105 mmHg | 15-25 |
